Reference: patent publication US7786095B2, “Amphiphilic macrocyclic derivatives and their analogues” (University College Dublin, priority 2000, dated 2010)
“And” between values parts separate entries of the source, which are not always exact repeats. Equal values may be shown once.

Key:
Type in all cases: physicochemical
[1] = Transmission electron microscopy of cyclodextrin vesicles (uranyl acetate negative staining); conditions: prolonged sonication (9 hours), monodisperse solution
Description: (§1) The amphiphilic cyclodextrins are dispersed in water by sonication of a thin film (cast by slow rotary evaporation of a solution of the cyclodextrins in chloroform) in a sonication bath. HE-SC12 is sonicated for 2 hours at room temperature and HE-SC16 is sonicated for 2 hours at 50° C. Dynamic light scattering indicates the presence of vesicles with an average diameter of 170 nm. Vesicles of cyclodextrins of 50-300 nm diameter are also observed by transmission electron microscopy using uranyl acetate as a negative staining agent (FIG. 1). Upon prolonged sonication (9 hours) of a solution of HE-SC12, a monodisperse solution of spherical vesicles with an average diameter of 60 nm is obtained (FIG. 2). Thus, the particle size can be directed by sonication time, in order to obtain a size suitable for specific molecular inclusion or specific therapeutic use.

[2] = Carboxyfluorescein entrapment in vesicles: fluorescence increase on Triton X-100 solubilisation; conditions: 1000-fold dilution, 0.1% w/w Triton X-100, two independent preparations
Description: (§2) Vesicles of heptakis(6-dodecylthio-2-oligoethylenoxy)-β-cyclodextrin and […] were prepared by sonication in a buffered solution of carboxyfluorescein (CF).
(i) Small aliquots of the solutions of the cyclodextrin vesicles (5-20 mM) were diluted 1000-fold, resulting in immediate dilution of the non-entrapped CF with concomitant intense CF fluorescence, which was measured. The fluorescence of entrapped CF is negligible due to self-quenching. Next, the vesicles in the diluted solution were solubilised by the addition of 0.1% w/w of the detergent Triton X-100, leading to release and dilution of entrapped CF, with concomitant increase of CF fluorescence, which was measured. In this concentration range (ca. […]). The fluorescence intensity of CF correlates linearly with its concentration, and the incremental change of fluorescence upon addition of Triton X-100 is a direct measure of the percentage of entrapped volume of the vesicles relative to the total volume of the solution. The entrapped volume amounted to 7.7+/−1.9% and 11.4+/−2.7% for two independent preparations of HE-SC16; and to 5.0+/−2.4% and 7.2+/−5.3% for two independent preparations of HE-SC12.

[3] = Dynamic light scattering of cyclodextrin vesicles dispersed in water by sonication; conditions: sonicated 2 hours (HE-SC12 room temperature, HE-SC16 50° C.)
Description: as §1

[4] = Differential scanning calorimetry of a 10% (w/w) dispersion in water
Description: Heptakis(6-hexadecylthio-2-oligoethylenoxy)-β-cyclodextrin was analysed using differential scanning calorimetry. […] The transition occurred around 48-49° C. and the enthalpy of transition amounted to 59 kJ/mol cyclodextrin. This typical Lβ-L[…] transition was confirmed in a measurement of the fluorescence polarisation of diphenylhexatriene in the presence of a vesicle solution by a standard method (R. R. C. New, Liposomes: a practical approach, Oxford University Press, 1990). Thus, vesicles of the amphiphilic cyclodextrins undergo thermotropic phase transitions which depend on molecular structure, and which can direct important parameters such as vesicle stability and bilayer permeability.

[5] = Spontaneous release of carboxyfluorescein from gel-filtered vesicles over time; conditions: room temperature, after 3 days
Description: as §2
(ii) CF entrapped in the vesicles was separated from free (non-entrapped) CF by gel filtration using Sephadex G25. […] The peak of entrapped CF coincided with the elution of vesicles (FIG. 4). This confirms the existence of an aqueous inner compartment within the vesicles. Furthermore, as anticipated, the amount of entrapped CF in cyclodextrin vesicles correlated with the cyclodextrin concentration.
(iii) The spontaneous release of CF from vesicles of HE-SC16 (separated from free CF by gel filtration) was measured over time. At room temperature, the leakage of CF was limited, and the vesicles retained more than 75% of CF after 3 days (FIG. 5).

Substance: heptakis(6-dodecylthio-2-oligoethylenoxy)-β-cyclodextrin [HE-SC12]
- average diameter of spherical vesicles after prolonged sonication [1]: 60 nm
- entrapped volume of the vesicles relative to the total volume of the solution [2]: 5.0+/−2.4% and 7.2+/−5.3%
- average diameter of vesicles (dynamic light scattering) [3]: 170 nm

Substance: heptakis(6-hexadecylthio-2-oligoethylenoxy)-β-cyclodextrin [HE-SC16]
- entrapped volume of the vesicles relative to the total volume of the solution [2]: 7.7+/−1.9% and 11.4+/−2.7%
- endothermic phase transition temperature (DSC heating scan) [4]: 48-49 °C
- enthalpy of transition [4]: 59 kJ/mol cyclodextrin
- CF retained by vesicles [5]: more than 75%
- average diameter of vesicles (dynamic light scattering) [3]: 170 nm
